Reference: the supplement of paper PMC10307832

How the values were obtained:
Experiment in all cases: relative viability (nuclei count vs DMSO), 5 days (fraction); higher = more cells survive
[1] = compound: C1CCC(CC1)N(CCNCCC2=C3C(=C(C=C2)O)NC(=O)CO3)C(=O)CCNCCC4=CC(=C(C=C4)Cl)Cl [AZ505] + Nc1nc2[nH]cc(CCc3ccc(C(=O)N[C@@H](CCC(=O)O)C(=O)O)cc3)c2c(=O)[nH]1 [Pemetrexed] (partner 0.2 µM)
Summary of the method: (§1)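 Relative viability equals treated-well nuclei counts divided by vehicle-well nuclei counts. Counts came from 4× images of lung cancer cell lines grown in 1536-well plates for 5 days after pin-tool dosing on the day after seeding. Dosing used one drug alone or a fixed anchor-drug dose plus five library-drug doses (not always all listed) in √10 steps, and values are medians of duplicate plates.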

[2] = compound: Cn1c(=O)n(-c2ccc(C(C)(C)C#N)cc2)c2c3cc(-c4cnc5ccccc5c4)ccc3ncc21 [Dactolisib] + O=C(c1cc(Cc2n[nH]c(=O)c3ccccc23)ccc1F)N1CCN(C(=O)C2CC2)CC1 [Olaparib] (partner 8 µM)
Summary of the method: as §1

[3] = compound: Cn1c(=O)n(-c2ccc(C(C)(C)C#N)cc2)c2c3cc(-c4cnc5ccccc5c4)ccc3ncc21 [Dactolisib] + COc1cccc2cc(-c3nc([C@H]4CC[C@H](C(=O)O)CC4)n4ncnc(N)c34)[nH]c12 [OSI-027] (partner 0.5 µM)
Summary of the method: as §1

[4] = compound: Cn1c(=O)n(-c2ccc(C(C)(C)C#N)cc2)c2c3cc(-c4cnc5ccccc5c4)ccc3ncc21 [Dactolisib] + Nc1ncn([C@H]2C[C@H](O)[C@@H](CO)O2)c(=O)n1 [Decitabine] (partner 2 µM)
Summary of the method: as §1

Cell Line | relative viability ([1]; first compound 0.08 µM) | relative viability ([1]; first compound 0.253 µM) | relative viability ([1]; first compound 0.8 µM) | relative viability ([1]; first compound 2.53 µM) | relative viability ([1]; first compound 8 µM) | relative viability ([2]; first compound 0.002 µM) | relative viability ([2]; first compound 0.006325 µM) | relative viability ([2]; first compound 0.02 µM) | relative viability ([2]; first compound 0.06325 µM) | relative viability ([2]; first compound 0.2 µM) | relative viability ([3]; first compound 0.002 µM) | relative viability ([3]; first compound 0.006325 µM) | relative viability ([3]; first compound 0.02 µM) | relative viability ([3]; first compound 0.06325 µM) | relative viability ([3]; first compound 0.2 µM) | relative viability ([4]; first compound 0.002 µM) | relative viability ([4]; first compound 0.006325 µM) | relative viability ([4]; first compound 0.02 µM) | relative viability ([4]; first compound 0.06325 µM) | relative viability ([4]; first compound 0.2 µM)
HCC-44 | 0.683 | 0.643 | 0.659 | 0.638 | 0.673 | 0.969 | 1.03 | 0.956 | 1.01 | 1.01 | 0.492 | 0.559 | 0.634 | 0.439 | 0.466 | 1.04 | 0.976 | 0.937 | 0.944 | 0.878
HCC-827 | 0.288 | 0.269 | 0.288 | 0.264 | 0.266 | 0.601 | 0.611 | 0.608 | 0.479 | 0.411 | 0.8 | 0.774 | 0.787 | 0.826 | 0.759 | 0.387 | 0.343 | 0.337 | 0.27 | 0.294
NCI-H1623 | – | – | – | – | – | – | – | – | – | – | 0.49 | 0.431 | 0.46 | 0.38 | 0.396 | – | – | – | – | –
NCI-H2347 | 0.392 | 0.367 | 0.428 | 0.387 | 0.428 | 0.693 | 0.54 | 0.531 | 0.471 | 0.407 | 0.407 | 0.52 | 0.635 | 0.41 | 0.332 | 0.682 | 0.581 | 0.62 | 0.541 | 0.473
PC-14 | 0.122 | 0.138 | 0.127 | 0.146 | 0.166 | 0.337 | 0.505 | 0.359 | 0.141 | 0.0895 | 0.863 | 0.755 | 0.662 | 0.2 | 0.0989 | 0.333 | 0.222 | 0.261 | 0.161 | 0.138
NCI-H1651 | 0.529 | 0.557 | 0.608 | 0.679 | 0.6 | 0.187 | 0.173 | 0.178 | 0.208 | 0.215 | 0.783 | 0.665 | 0.639 | 0.421 | 0.323 | 0.644 | 0.689 | 0.503 | 0.327 | 0.314
HARA | 0.208 | – | 0.213 | 0.24 | 0.228 | 1.23 | 0.858 | 0.898 | 0.684 | 0.24 | 0.576 | 0.525 | 0.602 | 0.322 | 0.264 | 0.708 | 0.558 | 0.634 | 0.623 | 0.356
NCI-H1650 | 0.352 | 0.396 | 0.351 | 0.402 | 0.446 | 1.03 | 0.704 | 0.722 | 0.498 | 0.568 | 0.775 | 0.598 | 0.593 | 0.455 | 0.282 | 0.591 | 0.367 | 0.37 | 0.294 | 0.315
NCI-H1395 | 0.919 | – | 0.733 | 0.969 | 1.04 | 0.439 | 0.434 | 0.428 | 0.387 | 0.401 | 0.666 | 0.646 | 0.709 | 0.647 | 0.521 | 0.601 | 0.69 | 0.667 | 0.505 | 0.447
SK-LU-1 | 0.671 | 0.72 | 0.684 | 0.799 | 0.757 | 0.428 | 0.406 | 0.539 | 0.402 | 0.216 | 0.277 | 0.42 | 0.362 | 0.283 | 0.226 | 0.523 | 0.72 | 0.6 | 0.44 | 0.388
LU99A | 0.199 | 0.22 | 0.19 | – | 0.199 | 0.208 | 0.232 | 0.216 | 0.181 | 0.172 | 0.294 | 0.327 | 0.332 | 0.314 | 0.276 | 0.906 | 0.723 | 0.602 | 0.373 | 0.261
NCI-H1355 | 0.953 | 1 | 1.03 | 0.996 | 1 | 0.831 | 0.684 | 0.644 | 0.443 | 0.27 | 0.436 | 0.475 | 0.455 | 0.328 | 0.246 | 0.382 | 0.35 | 0.338 | 0.267 | 0.253
HCC-78 | – | – | 0.916 | 0.904 | 0.918 | 0.856 | 0.94 | 0.669 | 0.452 | 0.336 | 0.439 | 0.411 | 0.376 | 0.396 | 0.332 | 0.834 | 0.854 | 0.619 | 0.612 | 0.455
NCI-H1563 | 0.703 | 0.782 | 0.875 | 0.771 | 0.769 | – | – | – | – | – | 0.746 | 0.772 | 0.685 | 0.648 | 0.598 | – | – | – | – | –
HCC-15 | 0.209 | 0.231 | 0.22 | 0.218 | 0.24 | 0.957 | 0.699 | 0.699 | 0.535 | 0.39 | 0.686 | 0.678 | 0.683 | 0.473 | 0.317 | 0.626 | 0.599 | 0.617 | 0.33 | 0.208
